{"source": "patent US7288552B2", "about": "“Piperidine derivatives, process for preparation thereof, and pharmaceutical composition for alzheimer's disease containing the same” (STC NARA Co., Ltd., priority 2001, dated 2007)", "key": {"ICR mice": {"tested_on": "ICR mice", "assay": "Acute toxicity test on animals", "assay_type": "in vivo", "conditions": "50 mg/kg to 500 mg/kg intraperitoneal, single injection, observed for 10 days", "experimental": "In order for a compound to be comprised in the pharmaceutical composition for treating Alzheimer's disease, it must be nontoxic. […] This test followed the protocol of Korea Food & Drug Administration. […] The compounds used for the test were diluted with wheat germ oil."}, "[1]": {"tested_on": "patients with Alzheimer's disease", "conditions": "cited from earlier work"}, "β-amyloid (1-42)": {"target": "T1, β-amyloid (1-42) (Homo sapiens, UniProt P05067)", "T1 construct": "β-amyloid (1-42) was a product of American Peptide Co., U.S.A; purchased American Peptide Co., U.S.A", "T1 sequence (P05067 672-713 limits assumed)": "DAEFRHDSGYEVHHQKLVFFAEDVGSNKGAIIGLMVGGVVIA", "assay": "Inhibition of β-amyloid (1-42) aggregation (thioflavin T fluorescence)", "assay_type": "biochemical", "conditions": "5 μM β-amyloid 1-42, 37° C., 26 hours", "from_the_text": "Experiment for Measuring Inhibition of β-amyloid Aggregation\nAs the materials used for measuring β-amyloid aggregation, β-amyloid (1-42) was a product of American Peptide Co., U.S.A.; and thioflavin T, phosphate buffered saline tablets, and dimethyl sulfoxide (DMSO, 99.5%) were products of Sigma Chemical Co., U.S.A., and high purity reagents were selected for other reagents.\n3. Experiment for Measuring Inhibition of β-amyloid (1-42) Aggregation\nFluorescent analysis was used in measuring β-amyloid aggregation. This peptide compound was kept in the deep freezer (−80° C.), and the final concentration used in the mesurement was 5 μM. Compounds that need to be analyzed were dissolved in 99.5% DMSO, and fluorescent substance was prepared by dissolving thioflavin T (5 μM) in 0.01 M sodium phosphate buffer.\nThe procedure for aggregation reaction was as follows. To 0.01 M sodium phosphate buffer (92.5 μl) was added fixed concentration of a compound, for measuring purpose, (5 μl) and 5 μM β-amyloid 1-42 (2.5 μl). The resulting mixture was kept at 37° C. for 26 hours to aggregate. 5 μM tioflavin T (2000 μl) was added thereto, and then fluorescent strength was measured with fluorescent spectrometer."}, "[2]": {"target": "T2, acetylcholinesterase (Type V-S: from electric eel) (Electrophorus electricus, UniProt O42275)", "T2 construct": "purchased Sigma Chemical Co., U.S.A. Type V-S", "T2 sequence (O42275 24-633)": "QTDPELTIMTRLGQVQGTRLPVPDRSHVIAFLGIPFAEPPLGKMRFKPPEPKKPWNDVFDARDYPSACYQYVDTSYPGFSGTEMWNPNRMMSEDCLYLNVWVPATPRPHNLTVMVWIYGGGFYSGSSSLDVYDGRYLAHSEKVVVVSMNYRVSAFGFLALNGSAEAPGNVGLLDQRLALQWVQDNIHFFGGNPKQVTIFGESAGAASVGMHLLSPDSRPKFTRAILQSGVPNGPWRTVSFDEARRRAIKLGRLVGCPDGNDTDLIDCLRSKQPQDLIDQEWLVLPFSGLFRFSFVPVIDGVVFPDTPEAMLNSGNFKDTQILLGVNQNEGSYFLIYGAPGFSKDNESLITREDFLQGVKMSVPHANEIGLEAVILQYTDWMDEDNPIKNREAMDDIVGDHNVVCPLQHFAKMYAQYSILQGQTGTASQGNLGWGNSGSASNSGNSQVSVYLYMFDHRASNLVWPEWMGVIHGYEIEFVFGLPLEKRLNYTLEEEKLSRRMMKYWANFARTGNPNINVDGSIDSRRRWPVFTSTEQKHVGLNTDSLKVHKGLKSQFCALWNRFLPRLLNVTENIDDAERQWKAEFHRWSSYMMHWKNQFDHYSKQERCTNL", "assay": "Measurement of acetylcholinesterase activity (modified Ellman's method)", "assay_type": "biochemical", "conditions": "0.03 U enzyme, 37° C., 412 nm; read-out: AChE Inhibition (IC50)", "from_the_text": "Experiment for Measuring Acetylcholinesterase Inhibition Effect\nThe compounds used for measuring acetylcholinesterase (AChE) activity such as acetylcholinesterase (Type V-S: from electric eel), acetylcholine iodide, 5,5-dithio-bis(2-nitro benzoic acid), and neostigmine bromide, were products of Sigma Chemical Co., U.S.A., and high purity reagents were selected for other reagents.\n3. Measurement of Acetylcholinesterase Activity\nModified Ellman's method for measuring enzyme activity was used to meet with the measurement of acetylcholinesterase activity. The enzyme was separated into certain amount, and kept under 80° C. below zero. The final concentration of the enzyme used in the experiment was 0.03 unit concentration. 1000 μM of […] dissolved in 0.1 M sodium phosphate buffer (pH 8.0) was used for substrate. As for dye reagent, 5,5-dithio-bis-(2-nitrobenzoic acid) (39.6 mg) and sodium bicarbonate(15 mg) dissolved in 10 mL sodium phosphate buffer (0.1M, pH 7.0) was used.\nThe procedure for the enzyme reaction was as follows. After adding 200 μl DTNB and 100 μl enzyme (0.03 U) to 2 mL sodium phosphate buffer (pH 8.0), the resulting mixture was pre-heated at 37° C. for 10 minutes. To the resulting mixture 200 μl substrate was added, and allowed to react for 3 minutes. The spectrometer of finished reaction was measured at 412 nm wave. IC50 value connected to activity inhibition was measured by quantal-dose response."}}}
{"smiles": "CC(C)(C)c1ccc(C(=O)OCCCCN2CCC(OC(c3ccccc3)c3ccccc3)CC2)cc1", "note": "[Example 6, 4-[4-(benzhydryloxy)piperidino]butyl 4-(tert-butyl)benzoate]", "values": [{"measurement": "death rate", "setting": "ICR mice", "result": "no death"}]}
{"smiles": "Nc1c2c(nc3ccccc13)CCCC2", "note": "[Tarcrine]", "values": [{"measurement": "share of patients with Alzheimer's disease in whom efficacious", "setting": "[1]", "result": "about 25%"}]}
{"smiles": "O=C(OCCCCN1CCC(OC(c2ccccc2)c2ccccc2)CC1)c1ccccc1", "note": "[Example 4, 4-[4-(benzhydryloxy)piperidino]butyl benzoate]", "values": [{"measurement": "IC50", "setting": "β-amyloid (1-42)", "result": 40.3, "unit": "µM"}, {"measurement": "IC50", "setting": "[2]", "result": 1.3, "unit": "µM"}]}
{"smiles": "O=C(OCCCCN1CCC(OCc2ccccc2)CC1)c1cccc(F)c1", "note": "[Example 19, 4-[4-(benzyloxy)piperidino]butyl 3-fluorobenzoate]", "values": [{"measurement": "IC50", "setting": "[2]", "result": "> 100", "unit": "µM"}]}
{"smiles": "O=C(OCCCCN1CCC(OCc2ccccc2)CC1)c1cccc(Cl)c1", "note": "[Example 18, 4-[4-(benzyloxy)piperidino]butyl 3-chlorobenzoate]", "values": [{"measurement": "IC50", "setting": "[2]", "result": "> 100", "unit": "µM"}]}
{"smiles": "O=C(OCCCCN1CCC(OC(c2ccccc2)c2ccccc2)CC1)c1ccc(F)cc1", "note": "[Example 3, 4-[4-(benzhydryloxy)piperidino]butyl 4-fluorobenzoate]", "values": [{"measurement": "IC50", "setting": "β-amyloid (1-42)", "result": 36.3, "unit": "µM"}, {"measurement": "IC50", "setting": "[2]", "result": 0.84, "unit": "µM"}]}
{"smiles": "O=C(OCCCCN1CCC(OC(c2ccccc2)c2ccccc2)CC1)c1cccnc1", "note": "[Example 11, 4-[4-(benzhydryloxy)piperidino]butyl nitcotinate]", "values": [{"measurement": "IC50", "setting": "β-amyloid (1-42)", "result": 61.2, "unit": "µM"}, {"measurement": "IC50", "setting": "[2]", "result": "> 150", "unit": "µM"}]}
{"smiles": "O=C(OCCCCN1CCC(OC(c2ccccc2)c2ccccc2)CC1)c1ccc([N+](=O)[O-])cc1", "note": "[Example 1, 4-[4-(benzhydryloxy)piperidino]butyl-4-nitrobenzoate]", "values": [{"measurement": "IC50", "setting": "β-amyloid (1-42)", "result": 53.1, "unit": "µM"}, {"measurement": "IC50", "setting": "[2]", "result": 7.2, "unit": "µM"}]}
{"smiles": "CC(C)c1ccc(C(=O)OCCCCN2CCC(OCc3ccccc3)CC2)cc1", "note": "[Example 16, 4-[4-(benzyloxy)piperidino]butyl 4-isopropylbenzoate]", "values": [{"measurement": "IC50", "setting": "[2]", "result": 14.8, "unit": "µM"}]}
{"smiles": "O=C(OCCCCN1CCC(OCc2ccccc2)CC1)c1ccc(Cl)cc1", "note": "[Example 13, 4-[4-(benzyloxy)piperidino]butyl 4-chlorobenzoate]", "values": [{"measurement": "IC50", "setting": "[2]", "result": "> 100", "unit": "µM"}]}
{"smiles": "O=C(OCCCCN1CCC(OCc2ccccc2)CC1)c1ccccc1", "note": "[Example 15, 4-[4-(benzyloxy)piperidino]butyl benzoate]", "values": [{"measurement": "IC50", "setting": "[2]", "result": "> 100", "unit": "µM"}]}
{"smiles": "O=C(OCCCCN1CCC(OC(c2ccccc2)c2ccccc2)CC1)c1ccc(Cl)cc1", "note": "[Example 2, 4-[4-(benzhydryloxy)piperidino]butyl-4-chlorobenzoate]", "values": [{"measurement": "death rate", "setting": "ICR mice", "result": "no death"}, {"measurement": "IC50", "setting": "β-amyloid (1-42)", "result": 28.2, "unit": "µM"}, {"measurement": "IC50", "setting": "[2]", "result": 0.3, "unit": "µM"}]}
{"smiles": "O=C(Nc1ccc(F)cc1)OCCCCN1CCC(OC(c2ccccc2)c2ccccc2)CC1", "note": "[Example 10, 4-[4-(benzhydryloxy)piperidino]butyl N-(4-fluorophenyl)carbamate]", "values": [{"measurement": "IC50", "setting": "β-amyloid (1-42)", "result": 114, "unit": "µM"}, {"measurement": "IC50", "setting": "[2]", "result": 2.45, "unit": "µM"}]}
{"smiles": "CC(C)(C)c1ccc(C(=O)OCCCCN2CCC(OCc3ccccc3)CC2)cc1", "note": "[Example 17, 4-[4-(benzyloxy)piperidino]butyl 4-(tert-butyl)benzoate]", "values": [{"measurement": "IC50", "setting": "[2]", "result": 12.2, "unit": "µM"}]}
{"smiles": "O=C(OCCCCN1CCC(OC(c2ccccc2)c2ccccc2)CC1)c1cccc(F)c1", "note": "[Example 8, 4-[4-(benzhydryloxy)piperidino]butyl 3-fluorobenzoate]", "values": [{"measurement": "IC50", "setting": "β-amyloid (1-42)", "result": 33.7, "unit": "µM"}, {"measurement": "IC50", "setting": "[2]", "result": 70.7, "unit": "µM"}]}
{"smiles": "O=C(OCCCCN1CCC(OCc2ccccc2)CC1)c1ccc([N+](=O)[O-])cc1", "note": "[Example 12, 4-[4-(benzyloxy)piperidino]butyl 4-nitrobenzoate]", "values": [{"measurement": "IC50", "setting": "[2]", "result": "> 100", "unit": "µM"}]}
{"smiles": "O=C(OCCCCN1CCC(OCc2ccccc2)CC1)c1ccc(F)cc1", "note": "[Example 14, 4-[4-(benzyloxy)piperidino]butyl 4-fluorobenzoate]", "values": [{"measurement": "IC50", "setting": "[2]", "result": "> 100", "unit": "µM"}]}
